In experiment [1] the test system is common marmosets. Description: marmoset human threat test. Format: in vivo, common marmoset. The note with it: for No. jumps / No. postures: marmoset, oral, 1 h before test; for No. jumps: mean±SEM (n=4), index of locomotor activity; for No. postures: mean±SEM (n=7). On the procedure:
For example the marmoset human threat test (Costall et al., 1988
The study utilised in house laboratory-bred male and female common marmosets over 2 years of age, weighing 300-500 g. The animals were caged in couples, in a housing room maintained at 25±1° C., 60% humidity and a 12 hour light/dark cycle (lights on at 0600, with 30 min simulated dawn and twilight). Testing was carried out with the animals situated in the home cage.
One hour before the test animals were treated orally with vehicle (0.5% HPMC) or test compound (1 ml/kg). After a wash-out period of at least three days, treatments were reassigned and the study was complete when all animals had received all treatments. Number of specific behavioural postures in response to the human threat and the number of jumps were analysed in this study. The postures recorded in the test were those described by Costall et al (1988). and the number of jumps from the back of the cage to the cage front provided an index of locomotor activity to assess potential for sedation or locomotor stimulation.
Results are expressed as mean±SEM (n=7). of number of postures and as a mean±SEM (n=4) of number of jumps. Data were subjected to one-way analysis of variance (ANOVA) followed by Dunnett's test, comparing each compound dose with vehicle treatment, using Statistica software (version 8.0) Statistically significant differences with respect to vehicle are indicated as *P<0.01.

Experiment [2] concerns the target human NK1 receptor (Homo sapiens, UniProt P25103). Description: NK1 filtration binding assay with [3H]-GR205171 on human NK1-CHO cell membranes. Also noted: expressed in transfected cells. The note with it: average of five independent experiments, [3H]-GR205171 radioligand, read-out: NK1 binding affinity pKi (converted). On the procedure:
The NK1 binding affinity of the compounds of the invention was determined using the following filtration binding assay using [^3H]-GR205171 as radioligand for human NK1 receptor stably expressed in CHO (Chinese Hamster Ovary) cells (see C. Griffante et al, Br. J. Pharmacol. 2006, 148, 39-45; H. M. Sarau et al, J. Pharmacol. Experimental Therapeutics 2000, 295(1), 373-381 and D. T. Beattie et al., Br. J. Pharmacol. 1995, 116, 3149-3157).
CHO cells stably expressing the human cloned neurokinin NK1 receptor were cultured in Dulbecco's Modified Eagle's Medium/F12 Ham (DMEM/F12Ham) supplemented with 10% foetal bovine serum and 2 mM L-glutamine. Cells were maintained in 5% CO2 in a humidified incubator at 37° C. […]
Binding assay was carried out in 96 deep well polypropylene plates (Whatman) in a volume of 400 μl consisted of 100 μl of incubation buffer (containing 50 mM HEPES, pH 7.4, 3 mM MnCl2, and 0.02% BSA), 4 μl of DMSO (total binding) or increasing concentrations of the compounds in the invention dissolved in DMSO (1 pM-1 μM final concentration), 100 μl of the radioligand [^3H]-GR205171 (0.2 nM final concentration) in incubation buffer and 200 μl of human NK1-CHO cell membranes suspension (4 μg/ml final) in incubation buffer. […] Filterplates were dried and retained radioactivity was counted in a Top Count (Perkin-Elmer). […]

SMILES strings stand for the structures. Where a name gives a salt, the structure may show the parent alone.

Sequence of human NK1 receptor (P25103 whole entry): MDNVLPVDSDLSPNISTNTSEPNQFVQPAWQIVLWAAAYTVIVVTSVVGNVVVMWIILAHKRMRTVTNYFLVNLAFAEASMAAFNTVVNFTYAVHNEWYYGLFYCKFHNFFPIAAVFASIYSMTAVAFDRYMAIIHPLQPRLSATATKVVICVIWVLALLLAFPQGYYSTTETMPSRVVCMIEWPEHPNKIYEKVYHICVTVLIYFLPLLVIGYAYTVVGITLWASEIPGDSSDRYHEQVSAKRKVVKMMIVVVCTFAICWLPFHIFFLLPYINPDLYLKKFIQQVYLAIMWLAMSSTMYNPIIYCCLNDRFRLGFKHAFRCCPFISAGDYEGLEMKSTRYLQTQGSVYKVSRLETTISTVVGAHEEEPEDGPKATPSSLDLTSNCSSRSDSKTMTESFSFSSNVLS

As to `Cc1cc(F)ccc1-c1cc([C@H]2CC[C@](C)(C(N)=O)N2)ncc1N(C)C(=O)C(C)(C)c1cc(C(F)(F)F)cc(C(F)(F)F)c1` [Example 11, (5R)-5-[5-[{2-[3,5-bis(trifluoromethyl)phenyl]-2-methylpropanoyl}(methyl)amino]-4-(4-fluoro-2-methylphenyl)-2-pyridinyl]-2-methyl-D-prolinamide bis-hydrochloride], the “effect on number of postures (anxiolytic effect)” value in experiment [1] (marmoset, 0.1, 0.3 or 1 mg/kg oral, significant at 0.3 and 1 mg/kg (P<0.01), no reduction in number of jumps) is “dose dependent reduction in the number of postures”. Besides, the No. jumps in experiment [1] (0.1 mg/kg) turned out to be 20.1 ± 2.1; in experiment [1] (0.3 mg/kg) it was 13.4 ± 2.5; in experiment [1] (1 mg/kg), 13.0 ± 2.1. The No. postures was 9.4 ± 1.0 in experiment [1] (0.1 mg/kg); “*6.3 ± 0.9” in experiment [1] (0.3 mg/kg, *P<0.01 vs vehicle); “*4.0 ± 0.4” in experiment [1] (1 mg/kg, *P<0.01 vs vehicle). In experiment [2], the Ki was 0.132 nM.

The record behind these values is patent US20090286836A1, “Novel Compounds” (priority 2008, published 2009).
